Patent publication US10863753B2, “Iron-fortified tea preparations and methods of making same” (The Governing Council of the University of Toronto, priority 2015, dated 2020)
Several values for one entry are separate records, joined by “and”; a condition that tells them apart may be missing. Equal entries are not always repeated. Where two headings read alike, the source gives them in different places.

Assays:
[1] = Iron-polyphenol complex formation in brewed tea (spectrophotometry / colour); assay type: physicochemical
Procedure: Iron polyphenol complex was measured using spectrophotometry. 2 L of tea were freshly prepared and brewed for 5 minutes. Tea leaves were removed and the liquid was distributed into 6 beakers (250 ml each). A stock solution of ferric EDTA was prepared and increasing volumes were added to each beaker. The maximum UV and Visible light absorbance wavelength for the tea was determined Absorbance at this maximum absorbance wavelength was measured after 5, 20 and 60 minutes. […]
Complex formation was determined using spectrophotometry. […] The maximum UV and visible light wavelength absorbance for the iron-tea polyphenol complex was determined. The maximum absorbance was 580 nm at tea pH and fortified teas were measured after 5, 20 and 60 minutes.

[2] = In vitro bioaccessibility, simulated pepsin and pancreatin/bile digestion (Example 3); assay type: in vitro ADME; details: in tea, no EDTA protection
[3] = assay type: physicochemical; details: for Precipitation in tea extract / Reduction of iron-polyphenol complex formation: tea extract 1 gGAE/L
Procedure: The tea extract was prepared using a solution of 50% by volume N,N-dimethylformamide (DMF) and 50% by volume reverse osmosis purified (RO) water with black tea leaves. […] Tea extract was diluted to the concentration of tea (1 gGAE/L) or to 1/10th of that concentration (0.1 gGAE/L) for use in these experiments and pH was controlled using hydrochloric acid and sodium hydroxide.
Iron complex formation was measured using spectrophotometry and analyzed by normalizing against ferrous sulfate in gallic acid (GA) at the phenolic concentration of tea. Therefore, 100% represents the peak absorbance of ferrous sulfate in a 1 g/L gallic acid solution at pH 5 or pH 7.

[4] = Complexation of iron in gallic acid solution (spectrophotometry); details: for Iron gallic acid complex: 0.3 mM iron; for Reduction of iron polyphenol complex formation: gallic acid
Procedure: To approximate brewed tea, a concentration of 1 g/L and pH 5 were used. Binding of iron was also tested at pH 7 to approximate the pH of the small intestine. Hydrochloric acid and sodium hydroxide were used to adjust and maintain the pH. […] Since the iron-gallate complex is coloured, spectrophotometry was used to quantify the complex formation.

Caco-2 cells = assay: Caco-2 cell transport, bioavailable fraction in basolateral chamber (Example 3)
Procedure: The digested liquid was diluted to half with buffer in order to ensure cells survival during the experiment, and the basolateral camera was filled with 2 ml of buffer. […] The liquid from the basolateral camera was collected and sent for iron analysis using AAS.

[5] = iron source added to tea without EDTA protection
[6] = iron source with EDTA protection, molar ratio 1:2
[7] = target pH 5, tea extract 0.1 gGAE/L, 0.3 mM iron
[8] = target pH 7, tea extract 0.1 gGAE/L, 0.3 mM iron

SMILES	Iron-polyphenol complex formation (colour) [1, 5]	Iron-polyphenol complex formation (colour) [1, 6]	Bioaccessibility of iron [2]	Iron Complex (% FS in 1 g/L GA) ([3]; pH 5)	Iron Complex (% FS in 1 g/L GA) ([3]; pH 7)	Iron gallic acid complex ([4]; target pH 5, 1 g/L gallic acid) [%]	Iron gallic acid complex ([4]; target pH 7, 1 g/L gallic acid) [%]	Iron Complex (% FS in 1 g/L GA) [3, 7] [% FS in 1 g/L GA]	Iron Complex (% FS in 1 g/L GA) ([3]; target pH 5, tea extract 0.1 gGAE/L, 0.3 mM iron, listed as Ferric sodium EDTA)	Iron Complex (% FS in 1 g/L GA) ([3]; target pH 5, tea extract 1 gGAE/L, 0.3 mM iron)	Iron Complex (% FS in 1 g/L GA) [3, 8] [% FS in 1 g/L GA]	Iron Complex (% FS in 1 g/L GA) ([3]; target pH 7, tea extract 0.1 gGAE/L, 0.3 mM iron, listed as Ferric sodium EDTA)	Iron Complex (% FS in 1 g/L GA) ([3]; target pH 7, tea extract 1 gGAE/L, 0.3 mM iron)	Precipitation in tea extract [3]	Reduction of iron-polyphenol complex formation ([3]; pH 5) [%]	Reduction of iron-polyphenol complex formation ([3]; pH 7) [%]	Reduction of iron polyphenol complex formation ([4]; pH 5)	Reduction of iron polyphenol complex formation ([4]; pH 7)	Increased bioavailability with an excess of EDTA versus no protection (Caco-2 cells; in fortified tea) [fold]	Bioavailability of iron (Caco-2 cells; in tea, added without EDTA protection)
O=S(=O)([O-])[O-].[Fe+2] [ferrous sulphate]	iron-polyphenol complex was formed instantaneously	effective in avoiding complex formation	lowest bioaccessibility	72 ± 2	85 ± 1	100 ± 3.0	100 ± 2.0													
O=C([O-])CN(CCN(CC(=O)[O-])CC(=O)[O-])CC(=O)[O-].[Fe+3].[Na+] [FeNaEDTA, ferric sodium EDTA]	complex was formed	effective in avoiding complex formation				6.2 ± 0.2	7.0 ± 0.5	3.0 ± 0.2	3	4 ± 6	3.0 ± 0.7	3	70 ± 8	not cause precipitation	96	30	94%±3%	93%±2%		
O=C([O-])/C=C/C(=O)[O-].[Fe+2] [ferrous fumarate]	iron-polyphenol complex was formed instantaneously	effective in avoiding complex formation				103 ± 3.0	110 ± 2.0	65 ± 2			66 ± 3			precipitation occurs					4	16% and 12%
